The data set in a line: in vitro. Particulars: human, hek293t cells.
Turning to `N#CC(=CC1=Cc2ccccc2OC1)C(=O)NCc1ccccc1` [9-F08, N-benzyl-3-(2H-chromen-3-yl)-2-cyanoprop-2-enamide], the viability at 48 h, 25 µM is 114%.

On to `COCC(C)NC(=O)C(C#N)=Cc1cccc(F)c1F` (centres unmarked) [9-F09, 2-cyano-3-(2,3-difluorophenyl)-N-(1-methoxypropan-2-yl)prop-2-enamide], for which the viability at 48 h, 25 µM was 114%.

`COc1ccc(C=C(C#N)C(=O)Nc2ccc(C(=O)O)cc2)cc1O` [9-F10, 4-[2-cyano-3-(3-hydroxy-4-methoxyphenyl)prop-2-enamido]benzoic acid]: the viability at 48 h, 25 µM came to 120%.

`Cc1nn(C)c(C)c1C=C(C#N)C(=O)Nc1ccccc1Cl` [9-F11, N-(2-chlorophenyl)-2-cyano-3-(1,3,5-trimethyl-1H-pyrazol-4-yl)prop-2-enamide]: the viability at 48 h, 25 µM is 110%.

With `CC(=Cc1ccccc1)C=C(C#N)C(=O)NC1CC1` [9-F12, 2-cyano-N-cyclopropyl-4-methyl-5-phenylpenta-2,4-dienamide], the viability at 48 h, 25 µM amounted to 92.3%.

Regarding `N#CC(=Cc1ccccc1Cl)C(=O)NCc1ccccc1` [9-F13, N-benzyl-3-(2-chlorophenyl)-2-cyanoprop-2-enamide], the viability at 48 h, 25 µM stood at 80.5%.

`CC(=O)Nc1ccsc1C=C(C#N)C(=O)Nc1ccc(F)cc1` [9-F14, 2-cyano-3-(3-acetamidothiophen-2-yl)-N-(4-fluorophenyl)prop-2-enamide]: the viability at 48 h, 25 µM was 98.4%.

With `N#CC(=Cc1sc2ccccc2c1Cl)C(=O)Nc1nccs1` [9-F15, 3-(3-chloro-1-benzothiophen-2-yl)-2-cyano-N-(1,3-thiazol-2-yl)prop-2-enamide], the viability at 48 h, 25 µM worked out at 117%.

With `N#CC(=Cc1ccco1)C(=O)NCc1ccc(-c2cccnc2)cc1` [9-F16, 2-cyano-3-(furan-2-yl)-N-{[4-(pyridin-3-yl)phenyl]methyl}prop-2-enamide], the viability at 48 h, 25 µM came out at 100%.

As to `N#CC(=Cc1ccc(N2CCOCC2)cc1)C(=O)Nc1nccs1` [9-F17, 2-cyano-3-[4-(morpholin-4-yl)phenyl]-N-(1,3-thiazol-2-yl)prop-2-enamide], the viability at 48 h, 25 µM came to 95.6%.

In the case of `CNC(=O)Cn1ccc2ccc(NC(=O)C(C#N)=Cc3ccco3)cc21` [9-F18, 2-cyano-3-(furan-2-yl)-N-{1-[(methylcarbamoyl)methyl]-1H-indol-6-yl}prop-2-enamide], the viability at 48 h, 25 µM worked out at 109%.

As to `COc1ccc(NC(=O)C(C#N)=Cc2ccco2)cc1` [9-F19, 2-cyano-3-(furan-2-yl)-N-(4-methoxyphenyl)prop-2-enamide], the viability at 48 h, 25 µM was 94.6%.

In the case of `N#CC(=Cc1ccc(Oc2cnccn2)cc1)C(=O)NC1CCCC1` [9-F20, 2-cyano-N-cyclopentyl-3-[4-(pyrazin-2-yloxy)phenyl]prop-2-enamide], the viability at 48 h, 25 µM stood at 95.3%.

On to `N#CC(=Cc1cccc(O)c1)C(=O)NCc1ccco1` [9-F21, 2-cyano-N-[(furan-2-yl)methyl]-3-(3-hydroxyphenyl)prop-2-enamide], for which the viability at 48 h, 25 µM came to 119%.

In the case of `COc1cc(C=C(C#N)C(=O)Nc2cccc3ncccc23)ccc1O` [9-F22, 2-cyano-3-(4-hydroxy-3-methoxyphenyl)-N-(quinolin-5-yl)prop-2-enamide], the viability at 48 h, 25 µM was 112%.

Turning to `CCCNC(=O)C(C#N)=Cc1ccns1` [9-G03, 2-cyano-N-propyl-3-(1,2-thiazol-5-yl)prop-2-enamide], the viability at 48 h, 25 µM was 128%.

Regarding `N#CC(=Cc1ccccc1O)C(=O)Nc1cccc2ncccc12` [9-G04, 2-cyano-3-(2-hydroxyphenyl)-N-(quinolin-5-yl)prop-2-enamide], the viability at 48 h, 25 µM was found to be 123%.

With `N#CC(=Cc1cccc2c1OCCCO2)C(=O)NCc1ccccc1` [9-G05, N-benzyl-2-cyano-3-(3,4-dihydro-2H-1,5-benzodioxepin-6-yl)prop-2-enamide], the viability at 48 h, 25 µM is 114%.

As for `CCOc1cc(C=C(C#N)C(=O)Nc2cccc(C)c2)ccc1O` [9-G06, 2-cyano-3-(3-ethoxy-4-hydroxyphenyl)-N-(3-methylphenyl)prop-2-enamide], the viability at 48 h, 25 µM was 105%.

For the compound `CCCn1c(C)cc(C=C(C#N)C(=O)Nc2ccc3c(c2)OCO3)c1C` [9-G07, N-(1,3-dioxaindan-5-yl)-2-cyano-3-(2,5-dimethyl-1-propyl-1H-pyrrol-3-yl)prop-2-enamide], the viability at 48 h, 25 µM worked out at 100%.

Turning to `COc1cccc(C=C(C#N)C(=O)Nc2ccccc2C(=O)O)c1` [9-G08, 2-[2-cyano-3-(3-methoxyphenyl)prop-2-enamido]benzoic acid], the viability at 48 h, 25 µM was found to be 102%.

Regarding `COc1ccc(NC(=O)C(C#N)=Cc2c(Cl)nc3ccccn23)cc1` [9-G09, 3-{2-chloroimidazo[1,2-a]pyridin-3-yl}-2-cyano-N-(4-methoxyphenyl)prop-2-enamide], the viability at 48 h, 25 µM was determined as 121%.

`N#CC(=Cc1ccc(O)c([N+](=O)[O-])c1)C(=O)Nc1ccccc1C(=O)O` [9-G10, 2-[2-cyano-3-(4-hydroxy-3-nitrophenyl)prop-2-enamido]benzoic acid]: the viability at 48 h, 25 µM came to 118%.

For the compound `CCCCNC(=O)C(C#N)=Cc1ccc2c(c1)OCCO2` [9-G11, N-butyl-2-cyano-3-(2,3-dihydro-1,4-benzodioxin-6-yl)prop-2-enamide], the viability at 48 h, 25 µM is 106%.

As for `COc1cc(C=C(C#N)C(=O)NC2CC2)ccc1O` [9-G12, 2-cyano-N-cyclopropyl-3-(4-hydroxy-3-methoxyphenyl)prop-2-enamide], the viability at 48 h, 25 µM came to 110%.

For the compound `N#CC(=Cc1ccc(Cl)cc1)C(=O)NCc1ccccc1` [9-G13, N-benzyl-3-(4-chlorophenyl)-2-cyanoprop-2-enamide], the viability at 48 h, 25 µM was determined as 104%.

For the compound `COc1ccc(C=C(C#N)C(=O)Nc2ccc(C(=O)O)cc2)cc1C` [9-G14, 4-[2-cyano-3-(4-methoxy-3-methylphenyl)prop-2-enamido]benzoic acid], the viability at 48 h, 25 µM turned out to be 108%.

For the compound `N#CC(=Cc1ccc(OC(F)F)cc1)C(=O)Nc1ccccc1` [9-G15, 2-cyano-3-[4-(difluoromethoxy)phenyl]-N-phenylprop-2-enamide], the viability at 48 h, 25 µM amounted to 139%.

In the case of `CC1CC1c1ccc(C=C(C#N)C(=O)Nc2ccc(C(=O)O)cc2)o1` (centres unmarked) [9-G16, 4-{2-cyano-3-[5-(2-methylcyclopropyl)furan-2-yl]prop-2-enamido}benzoic acid], the viability at 48 h, 25 µM was found to be 133%.

Regarding `Cc1cccc(C)c1NC(=O)C(C#N)=Cc1ccc(C(=O)O)cc1` [9-G17, 4-{2-cyano-2-[(2,6-dimethylphenyl)carbamoyl]eth-1-en-1-yl}benzoic acid], the viability at 48 h, 25 µM was found to be 111%.

In the case of `N#CC(=Cc1ccc(-c2cccc([N+](=O)[O-])c2)s1)C(=O)NC1CC1` [9-G18, 2-cyano-N-cyclopropyl-3-[5-(3-nitrophenyl)thiophen-2-yl]prop-2-enamide], the viability at 48 h, 25 µM is 103%.

With `Cc1ccc(NC(=O)C(C#N)=Cc2ccc(OC(F)F)cc2)c(C)c1` [9-G19, 2-cyano-3-[4-(difluoromethoxy)phenyl]-N-(2,4-dimethylphenyl)prop-2-enamide], the viability at 48 h, 25 µM was 90.4%.

With `COc1cc(C=C(C#N)C(=O)Nc2cccc(Cl)c2)cc(O)c1O` [9-G20, N-(3-chlorophenyl)-2-cyano-3-(3,4-dihydroxy-5-methoxyphenyl)prop-2-enamide], the viability at 48 h, 25 µM was 72.4%.

As to `Cn1c(CNC=C(C#N)C(=O)Nc2ccccc2)cc(=O)n(C)c1=O` [9-G21, 2-cyano-3-{[(1,3-dimethyl-2,6-dioxo-1,2,3,6-tetrahydropyrimidin-4-yl)methyl]amino}-N-phenylprop-2-enamide], the viability at 48 h, 25 µM came out at 115%.

Take `N#CC(=Cc1ccc(O)cc1)C(=O)Nc1ccc(Cl)cc1Cl` [9-G22, 2-cyano-N-(2,4-dichlorophenyl)-3-(4-hydroxyphenyl)prop-2-enamide]: the viability at 48 h, 25 µM was found to be 82.3%.

Consider `Cc1ccc(NC(=O)C(C#N)=Cc2ccc3c(c2)OCCO3)c(C)c1` [9-H03, 2-cyano-3-(2,3-dihydro-1,4-benzodioxin-6-yl)-N-(2,4-dimethylphenyl)prop-2-enamide], for which the viability at 48 h, 25 µM was 107%.

As to `CC(NC(=O)C(C#N)=Cc1ccco1)c1cccc(-n2ccnc2)c1` (centres unmarked) [9-H04, 2-cyano-3-(furan-2-yl)-N-{1-[3-(1H-imidazol-1-yl)phenyl]ethyl}prop-2-enamide], the viability at 48 h, 25 µM was 127%.

`C=CCNC(=O)C(C#N)=Cc1ccccc1OC` [9-H05, 2-cyano-3-(2-methoxyphenyl)-N-(prop-2-en-1-yl)prop-2-enamide]: the viability at 48 h, 25 µM came out at 114%.

On to `Cc1ncsc1C=C(C#N)C(=O)NCCc1ccccc1` [9-H06, 2-cyano-3-(4-methyl-1,3-thiazol-5-yl)-N-(2-phenylethyl)prop-2-enamide], for which the viability at 48 h, 25 µM worked out at 99.1%.

As to `C=CCNC(=O)C(C#N)=Cc1cc(F)ccc1F` [9-H07, 2-cyano-3-(2,5-difluorophenyl)-N-(prop-2-en-1-yl)prop-2-enamide], the viability at 48 h, 25 µM worked out at 111%.

Turning to `COCCNC(=O)C(C#N)=Cc1cccc(O)c1` [9-H08, 2-cyano-3-(3-hydroxyphenyl)-N-(2-methoxyethyl)prop-2-enamide], the viability at 48 h, 25 µM turned out to be 121%.

With `COCC(C)NC(=O)C(C#N)=Cc1ccc(F)c(C)c1` (centres unmarked) [9-H09, 2-cyano-3-(4-fluoro-3-methylphenyl)-N-(1-methoxypropan-2-yl)prop-2-enamide], the viability at 48 h, 25 µM turned out to be 108%.

As for `N#CC(=Cc1ccc(-c2ccccc2F)o1)C(=O)NCc1ccccc1` [9-H10, N-benzyl-2-cyano-3-[5-(2-fluorophenyl)furan-2-yl]prop-2-enamide], the viability at 48 h, 25 µM came out at 92.7%.

As to `CCCCNC(=O)C(C#N)=Cc1cccc(Cl)c1Cl` [9-H11, N-butyl-2-cyano-3-(2,3-dichlorophenyl)prop-2-enamide], the viability at 48 h, 25 µM was determined as 24.1%.

Regarding `Cc1nccn1Cc1ccc(NC(=O)C(C#N)=Cc2ccco2)cc1` [9-H12, 2-cyano-3-(furan-2-yl)-N-{4-[(2-methyl-1H-imidazol-1-yl)methyl]phenyl}prop-2-enamide], the viability at 48 h, 25 µM came to 93%.

As for `CCCCNC(=O)C(C#N)=Cc1ccc(Cl)cc1` [9-H13, N-butyl-3-(4-chlorophenyl)-2-cyanoprop-2-enamide], the viability at 48 h, 25 µM came out at 72.9%.

Consider `COc1ccc(C=C(C#N)C(N)=O)c(Cl)c1OC` [9-H14, 3-(2-chloro-3,4-dimethoxyphenyl)-2-cyanoprop-2-enamide], for which the viability at 48 h, 25 µM stood at 105%.

Usually viability stands for a read-out of living cells in per cent, often relative to untreated cells.

(Values after PMC11995724, “Antibiotic target discovery by integrated phenotypic and activity-based profiling of electrophilic fragments” (Cell chemical biology, 2025).)
